According to US20250354223A1, “METHODS AND KITS FOR D[…] SUSCEPTIBILITY” (Siemens Healthcare Diagnostics Inc., priority 2022, published 2025):

Legend:
Format in all cases: cell-based
E. coli [1] = assay: EMA (ethidium monoazide) + blue light treatment followed by PCR with 16SrDNA specific primers, with vs without antibiotic
Protocol: FIG. 3 illustrates a method of determining antibiotic susceptibility of micro-organisms, according to yet another embodiment. At step 301, the sample comprising the micro-organism is received. At step 302, at least one first portion of the sample is incubated with an antibiotic and at least one second portion of the sample is incubated with no antibiotic. The micro-organisms in the sample are required to be grown/cultured or incubated for the shortest possible time in which discernible nucleic acid differences can be measured. For example, the micro-organisms are cultured or incubated for a range of at least one to five doubling cycles. Antibiotics which are cell wall synthesis inhibitors (beta lactam) and cell membrane inhibitors (colistin) affect the integrity of cell wall of the micro-organisms. This facilitates determination of antibiotic susceptibility. Once the doubling cycle range is met for the at least one first and second portion of the sample, at step 303, an intercalating dye is introduced to the at least one first portion of the sample and the at least one second portion of the sample. […]
Overnight E. coli culture that was susceptible to ampicillin was further sub-cultured for 2-3 hours to log phase. Cells in this culture was quantified using OD600nm values. […]

E. coli [2] = assay: RT-PCR of extracted RNA with 16SrDNA specific primers, with vs without antibiotic; conditions: ampicillin-susceptible E. coli, 1×10^6 cells/mL, ampicillin 100 μg/mL, 37° C., 60 minutes; FIG. 10 table 1
Protocol: (§1) Overnight E. coli culture that was susceptible to ampicillin was further sub-cultured for 2-3 hours to log phase. Cells in this culture were quantified using OD600nm values. The culture was diluted to 1×10^6 cells/mL and 10 mL was aliquoted into two, 50 ml conical flask. Ampicillin at 100 μg/mL was added to one of the conical flasks. The two flasks, with and without antibiotic were incubated at 37° C. and two, 50 μL aliquots were taken from each flask at regular intervals (0, 30, 40 and 60 mins). Nucleic acid (NA) was extracted from all sample aliquots using the VERSANT® brand Sample preparation 1.0 reagent kit. The NA samples were then subjected to PCR and RT-PCR (reverse transcription-PCR) using 16SrDNA specific primers (each DNA extracted sample was split into two replicates for PCR). […] In this experiment, all RNA samples were treated with DNAse for 60 min at 37° C. before RT-PCR. In a subsequent experiment it was shown that a treatment as low as 5 minutes was also sufficient to eliminate DNA from the sample.

E. coli [3] = assay: PCR of extracted DNA with 16SrDNA specific primers, with vs without antibiotic (no EMA); conditions: ampicillin-susceptible E. coli, 1×10^6 cells/mL, ampicillin 100 μg/mL, 37° C.
Protocol: as §1
Overnight E. coli culture that was susceptible to ampicillin was further sub-cultured for 2-3 hours to log phase. Cells in this culture was quantified using OD600nm values. The culture was diluted to 1×10^6 cells/mL and 10 mL was aliquoted into two, 50 ml conical flasks. Ampicillin at 100 μg/mL was added to one of the conical flasks. […]

With `CC1(C)S[C@@H]2[C@H](NC(=O)[C@H](N)c3ccccc3)C(=O)N2[C@H]1C(=O)O` [ampicillin] the “effect of including EMA on the difference in cycle threshold values between first (ampicillin) and second (no ampicillin) portion” value (E. coli [1]; FIG. 4, graph 402 (ampicillin and EMA) vs graph 401 (ampicillin only)) was “improves the difference in the cycle threshold values”, the “difference in Ct between ampicillin exposed and unexposed, samples exposed to EMA” value (E. coli [1]; ampicillin-susceptible E. coli, 1×10^6 cells/mL, ampicillin 100 μg/mL, 37° C., within 30 minutes, EMA + blue LED light, FIG. 14 table 1) was “large difference in Ct” and the “detection of ampicillin susceptibility by RNA levels” value (E. coli [2]) was “able to detect for ampicillin susceptibility at 60 minutes”. The “distinction of antibiotic and no antibiotic samples by DNA levels” value (E. coli [3]; 60 min incubation, FIG. 10 table 2) was “did not distinguish antibiotic and no antibiotic samples” and the “difference in Ct between ampicillin exposed and unexposed, samples not exposed to EMA+blue light” value (E. coli [3]; up to 30 mins, no EMA, FIG. 14 table 2) was “did not show any difference”.
